Measured values: patent publication US6699908B2, “Methods for providing safe local anesthesia” (Euro-Celtique, S.A., priority 1996, dated 2004)
Where a name gives a salt, the structure may show the parent alone.

Columns and labels:
[1] = in vivo; cited from earlier work
Sprague-Dawley rats = experiment: Single dose toxicity (acute lethality) in rats, intramuscular; format: in vivo; settings: for Mortality: I.M.
Experimental: Sprague-Dawley rats from Charles River, 6-8 weeks of age (body weight about […] for females and about 200-290 grams for males) were used for these studies.
Male and female rats were dosed intramuscularly in the hind limb with bupivacaine base (the form used in the microspheres), aqueous bupivacaine HCl, or LAB. The animals were examined for pharmacotoxic signs (including tremors and convulsions, and death).

sciatic nerve = experiment: Local injection proximal to the sciatic nerve, rat hot plate assay / dose-response; format: in vivo; settings: rats, local injection of 25 mg/kg (8 mg/nerve)

SMILES: CCCCN1CCCCC1C(=O)Nc1c(C)cccc1C (stereo not drawn) [bupivacaine]
- plasma concentrations associated with toxicity [1]: > 1600 ng/mL

SMILES: CCCCN1CCCCC1C(=O)Nc1c(C)cccc1C (stereo not drawn) [Bupivacaine free base, bupivacaine base]
- Mortality (Sprague-Dawley rats; 50 mg/kg): 1/4
- Mortality (Sprague-Dawley rats; 100 mg/kg): 1/4
- Mortality (Sprague-Dawley rats; 150 mg/kg): 2/4

SMILES: CCCCN1CCCCC1C(=O)Nc1c(C)cccc1C (stereo not drawn) [Bupivacaine HCl, bupivacaine HCl]
- deaths of the animals (sciatic nerve): about 10%
- Mortality (Sprague-Dawley rats; 5 mg/kg): 0/4
- Mortality (Sprague-Dawley rats; 10 mg/kg): 0/4
- Mortality (Sprague-Dawley rats; 25 mg/kg): 0/4
- Mortality (Sprague-Dawley rats; 50 mg/kg, HCl): 4/4
- Mortality (Sprague-Dawley rats; 100 mg/kg, HCl): 4/4
- lowest lethal dose (Sprague-Dawley rats; intramuscular dosing): 10.6 mg/kg
- paralysis of the hindlimb (local motor anesthesia) (Sprague-Dawley rats; intramuscular dosing in the hind limb): More transient paralysis
